Data set [1] deals with Allium cepa. To be noted: not reported; seedling emergence.
For data set [2], the system named is Anas platyrhynchos.
The test system of data set [3] is Apis mellifera. The conditions noted are these: acute, duration: 72 hours, mortality.
The subject of data set [4] is Bibionidae. To be noted: chronic/long-term.
Data set [5] concerns Canidae. To be noted: oral, Dog Other, organ weight.
The test system of data set [6] is Colinus virginianus.
Data set [7] deals with Cucumis sativus. The conditions noted are these: not reported; seedling emergence.
Data set [8] concerns Daphnia magna. The conditions noted are these: chronic/long-term; duration: 21 days; reproduction.
Data set [9] relates to Oncorhynchus mykiss.
In data set [10] the test system is Rattus norvegicus.
Data set [11] has as its system Tagia sp.
The test system of data set [12] is Typhlodromus pyri. To be noted: not reported.

In brackets after ≈: the same amount, converted by molar mass. Bounds are passed on as bounds.

For the compound `CCCCC(C#N)(Cn1cncn1)c1ccc(Cl)cc1` (centres undefined) [Myclobutanil], the LEL in data set [1] is 300 g/ha; in [7] it was 300 g/ha; in [12] (mortality), 36 g/ha; in [12] (reproduction) it was 36 g/ha. Moreover, the NOEC in [2] (reproductive) was 31.6 mg/kg-day; in [4], 6.07 mg/kg; in data set [4] (duration: 30 days), 4.98 mg/L; in data set [6] (reproduction developmental), 24.2 mg/kg-day; in [8], 1 mg/L; in data set [9] (chronic/long-term, duration: 21 days, growth), 0.2 mg/L. The same compound showed an NOEC in data set [11] (chronic/long-term) of 10.3 mg/kg. The LC50 was more than 1540 mg/kg-day in data set [2] (short-term, oral, feed, mortality); more than 567 mg/kg-day in data set [6] (acute, oral, diet, mortality); 2 µg/mL (≈ 6.93 µM) in data set [9] (acute, duration: 96 hours, mortality); 250 mg/kg in [11] (acute, mortality). Also, the LD50 in data set [3] (dermal) was more than 39.6 µg/piece; in data set [3] (oral, unspecified), more than 33.9 µg/piece; in data set [6] (acute, oral, mortality) it was 510 mg/kg-day; in data set [10] (acute, oral, M, mortality) it was 1600 mg/kg-day. The NOAEL is 3.09 mg/kg-day in [5] (chronic, duration: 1 years); 3.09 mg/kg-day in [5] (subchronic, duration: 90 days); 2.5 mg/kg-day in [10] (chronic, duration: 2 years, histopathology: nonneoplastic); 31 mg/kg-day in data set [10] (developmental, development). For the same compound, the NOEL in [10] (reproduction developmental, reproduction) was 16 mg/kg-day.

These data come from EPA's ToxValDB 9.5 (doi:10.2903/j.efsa.2010.1682).
